Literature values, collected in patent US20240141060A1, “DOSAGE REGIMES FOR ANTI-CD73 AND ANTI-ENTPD2 ANTIBODIES AND USES THEREOF” (NOVARTIS AG, priority 2021, published 2024).

Settings: patients; cited from earlier work

## Nc1nc(-n2cccn2)nc(-n2cccn2)c1Br [NIR178, 5-bromo-2,6-di-(1H-pyrazol-1-yl)pyrimidine-4-amine, reference compound]
  MTD: 480 mg BID
